{"source": "patent US9995734B2", "about": "“Human T cell line assay for evaluating the immunologic identity of glatiramer acetate preparations” (Mylan Inc., priority 2013, dated 2018)", "key": {"[1]": {"system": "Donor 3 GMA T-cell lines (165-B5G, 165-C4G, 165-C5G, 165-E9G, 165-F5G, 165-F10G)", "assay": "MHC DR restriction testing (ATP proliferation with autologous and partially HLA-DR matched APC), Donor 3 GMA T-cell lines", "assay_type": "cell-based, human", "details": "20 μg/mL", "method": "(§1) MHC DR restriction testing of cell lines was carried out by measuring the proliferation response of the cell lines as described above in the presence of an array of APC selected based on the known HLA-DR loci of the original PBMC donor for the cell line tested, including autologous APC (B-LCL). The donors used are described in Table 2.\n(§2) To define the MHC molecule used to present antigen to GA specific T cell lines, GA specific responses were measured in the presence of autologous APC and in the presence of APC matching one of the T cell donor's HLA-DR alleles. Therefore at least 3 APC were used in each experiment: autologous APC, APC matching DR allele 1 but not allele 2 and a third APC matching allele 2 but not allele 1. In some experiments a fourth APC B-LCL was used. A no antigen negative control was used. APC were inactivated by incubation with 50 ug/mL mitomycin C. Following inactivation, cells were washed three times to remove mitomycin C and suspended in X-VIVO 15 medium at 1×10^6 cells per mL. GA was added to the cell suspension to a final concentration of 20-60 μg/mL. The cells were incubated with antigen for 1 hour at 37° C. to allow antigen uptake and binding. The cell suspension was then centrifuged to pellet the cells and the cell pellet was washed once with medium. APC were adjusted to 2×10^5 cells per mL in X-VIVO 15 medium and added to opaque 96-well plates at 100 μL per well. T-cell suspensions of 2-4×10^5 cells per mL (unless otherwise specified) were added to the 96-well plates at 100 μL per well and the cultures incubated 4 days before measuring cell numbers using CellTiter Glo® (to evaluate proliferation).\n(§3) Alternatively, APC were not pulsed. Instead, each well contained 10 ug/mL antigen, 50 μl APC and 100 μL of T cells.\n(§4) After incubating for 4 days at 37° C. (5% CO2), 100 μL were removed from each well, combined with 100 μL CellTiterGlo reagent, and luminescence was measured using a Packard Fusion. Results were expressed in relative light units (RLU).\n(§5) As described in the Methods, T-cell lines were tested for MHC restriction by measuring proliferation following incubation with APC. Mitomycin-treated autologous APC, and test APC, e.g., from donors having at least one HLA-DR match with the original PBMC donor were employed. The values in the data tables below are in RLU.\n(§6) Donor 3 T-cell line 165-B5G was assayed for proliferation, using mitomycin-treated APC from Donors 3, 5, and 6 that had been incubated in the presence or the absence of 20 μg/mL GMA. T-cell line 165-B5G had been restimulated six times (not including the initial stimulation) with antigen before the MHC restriction assay was carried out. The data, shown in Table 62 and FIG. 9A, indicate that 165-B5G is restricted by HLA-DRβ1*11.\nas §6, with “165-C4G” for “165-B5G”, “7” for “6”, “five” for “six”, “63” for “62”, “9B,” for “9A,”\nas §6, with “165-05G” for “165-B5G”, “four” for “six”, “64” for “62”, “10A,” for “9A,”, “HLA-DRβ1*1501.” for “HLA-DRβ1*11.”\nas §6, with “165-E9G” for “165-B5G”, “four” for “six”, “The data, shown in Table 62 and FIG. 9A, indicate that 165-B5G is restricted by HLA-DRβ1*11.” left out"}, "[2]": {"system": "Donor 3 COP T-cell lines (165-B6C, 165-C7C, 165-D3C, 165-F3C, 165-F6C)", "assay": "MHC DR restriction testing (ATP proliferation with autologous and partially HLA-DR matched APC), Donor 3 COP T-cell lines", "assay_type": "cell-based, human", "details": "20 μg/mL", "method": "as §1, §2, §3, §4, §5\nas §6, with “line 165-B6C” for “line 165-B5G”, “μg/mL COP.” for “μg/mL GMA.”, “Table 68” for “Table 62”, “FIG. 12A,” for “FIG. 9A,”, “that […]” for “that 165-B5G”\nas §6, with “line 165-C7C” for “line 165-B5G”, “μg/mL COP.” for “μg/mL GMA.”, “restimulated five” for “restimulated six”, “Table 69” for “Table 62”, “FIG. 12B,” for “FIG. 9A,”, “that […]” for “that 165-B5G”\nT-cell line 165-D3C had been restimulated six times (not including the initial stimulation) with antigen before the MHC restriction assay was carried out. The data, shown in Table 70 and FIG. 13A, indicate that 165-D3Cis restricted by HLA-DRβ1*1501.\nT-cell line 165-F3C had been restimulated eight times (not including the initial stimulation) with antigen before the MHC restriction assay was carried out. The data, shown in Table 71 and FIG. 13B, indicate that 165-F3C is restricted by HLA-DRβ1*11.\nDonor 3 T-cell line 165-F6C was assayed for proliferation, using mitomycin-treated APC from Donors 3, 5, and 6 that had been incubated in the presence or the absence of 20 μg/mL COP. […]"}}, "data": [{"substance": "glatiramer acetate [GMA]", "values": [{"measurement": "Proliferation with antigen-incubated APC", "setting": "[1]; T-cell line 165-B5G, B-LCL Donor 3 (Autologous) DRβ1*1501/DRβ1*11", "value": 4776, "unit": "RLU"}, {"measurement": "Proliferation with antigen-incubated APC", "setting": "[1]; T-cell line 165-B5G, B-LCL Donor 5 DRβ1*01/DRβ1*11", "value": 5450, "unit": "RLU"}, {"measurement": "Proliferation with antigen-incubated APC", "setting": "[1]; T-cell line 165-B5G, B-LCL Donor 6 DRβ1*1501/DRβ1*13", "value": 2360, "unit": "RLU"}, {"measurement": "Proliferation with antigen-incubated APC", "setting": "[1]; T-cell line 165-C4G, B-LCL Donor 3 (Autologous) DRβ1*1501/DRβ1*11", "value": 48711, "unit": "RLU"}, {"measurement": "Proliferation with antigen-incubated APC", "setting": "[1]; T-cell line 165-C4G, B-LCL Donor 5 DRβ1*01/DRβ1*11", "value": 41833, "unit": "RLU"}, {"measurement": "Proliferation with antigen-incubated APC", "setting": "[1]; T-cell line 165-C4G, B-LCL Donor 7 DRβ1*1501/DRβ1*03", "value": 4870, "unit": "RLU"}, {"measurement": "Proliferation with antigen-incubated APC", "setting": "[1]; T-cell line 165-C5G, B-LCL Donor 3 (Autologous) DRβ1*1501/DRβ1*11", "value": 16461, "unit": "RLU"}, {"measurement": "Proliferation with antigen-incubated APC", "setting": "[1]; T-cell line 165-C5G, B-LCL Donor 5 DRβ1*01/DRβ1*11", "value": 9825, "unit": "RLU"}, {"measurement": "Proliferation with antigen-incubated APC", "setting": "[1]; T-cell line 165-C5G, B-LCL Donor 6 DRβ1*1501/DRβ1*13", "value": 31717, "unit": "RLU"}, {"measurement": "Proliferation with antigen-incubated APC", "setting": "[1]; T-cell line 165-E9G, B-LCL Donor 3 (Autologous) DRβ1*1501/DRβ1*11", "value": 5452, "unit": "RLU"}, {"measurement": "Proliferation with antigen-incubated APC", "setting": "[1]; T-cell line 165-E9G, B-LCL Donor 5 DRβ1*01/DRβ1*11", "value": 9514, "unit": "RLU"}, {"measurement": "Proliferation with antigen-incubated APC", "setting": "[1]; T-cell line 165-E9G, B-LCL Donor 6 DRβ1*1501/DRβ1*13", "value": 1442, "unit": "RLU"}, {"measurement": "Proliferation with antigen-incubated APC", "setting": "[1]; T-cell line 165-F5G, B-LCL Donor 3 (Autologous) DRβ1*1501/DRβ1*11", "value": 2862, "unit": "RLU"}, {"measurement": "Proliferation with antigen-incubated APC", "setting": "[1]; T-cell line 165-F5G, B-LCL Donor 5 DRβ1*01/DRβ1*11", "value": 3971, "unit": "RLU"}, {"measurement": "Proliferation with antigen-incubated APC", "setting": "[1]; T-cell line 165-F5G, B-LCL Donor 6 DRβ1*1501/DRβ1*13", "value": 1424, "unit": "RLU"}, {"measurement": "Proliferation with antigen-incubated APC", "setting": "[1]; T-cell line 165-F10G, B-LCL Donor 3 (Autologous) DRβ1*1501/DRβ1*11", "value": 120946, "unit": "RLU"}, {"measurement": "Proliferation with antigen-incubated APC", "setting": "[1]; T-cell line 165-F10G, B-LCL Donor 5 DRβ1*01/DRβ1*11", "value": 6221, "unit": "RLU"}, {"measurement": "Proliferation with antigen-incubated APC", "setting": "[1]; T-cell line 165-F10G, B-LCL Donor 7 DRβ1*1501/DRβ1*03", "value": 151115, "unit": "RLU"}, {"measurement": "Proliferation with antigen-incubated APC", "setting": "[2]; T-cell line 165-B6C, B-LCL Donor 3 (Autologous) DRβ1*1501/DRβ1*11", "value": 2237, "unit": "RLU"}, {"measurement": "Proliferation with antigen-incubated APC", "setting": "[2]; T-cell line 165-B6C, B-LCL Donor 5 DRβ1*01/DRβ1*11", "value": 8944, "unit": "RLU"}, {"measurement": "Proliferation with antigen-incubated APC", "setting": "[2]; T-cell line 165-B6C, B-LCL Donor 6 DRβ1*1501/DRβ1*13", "value": 322, "unit": "RLU"}, {"measurement": "Proliferation with antigen-incubated APC", "setting": "[2]; T-cell line 165-C7C, B-LCL Donor 3 (Autologous) DRβ1*1501/DRβ1*11", "value": 13714, "unit": "RLU"}, {"measurement": "Proliferation with antigen-incubated APC", "setting": "[2]; T-cell line 165-C7C, B-LCL Donor 5 DRβ1*01/DRβ1*11", "value": 94535, "unit": "RLU"}, {"measurement": "Proliferation with antigen-incubated APC", "setting": "[2]; T-cell line 165-C7C, B-LCL Donor 6 DRβ1*1501/DRβ1*13", "value": 1189, "unit": "RLU"}, {"measurement": "Proliferation with antigen-incubated APC", "setting": "[2]; T-cell line 165-D3C, B-LCL Donor 3 (Autologous) DRβ1*1501/DRβ1*11", "value": 106840, "unit": "RLU"}, {"measurement": "Proliferation with antigen-incubated APC", "setting": "[2]; T-cell line 165-D3C, B-LCL Donor 5 DRβ1*01/DRβ1*11", "value": 12173, "unit": "RLU"}, {"measurement": "Proliferation with antigen-incubated APC", "setting": "[2]; T-cell line 165-D3C, B-LCL Donor 7 DRβ1*1501/DRβ1*03", "value": 149506, "unit": "RLU"}, {"measurement": "Proliferation with antigen-incubated APC", "setting": "[2]; T-cell line 165-F3C, B-LCL Donor 3 (Autologous) DRβ1*1501/DRβ1*11", "value": 45559, "unit": "RLU"}, {"measurement": "Proliferation with antigen-incubated APC", "setting": "[2]; T-cell line 165-F3C, B-LCL Donor 5 DRβ1*01/DRβ1*11", "value": 39565, "unit": "RLU"}, {"measurement": "Proliferation with antigen-incubated APC", "setting": "[2]; T-cell line 165-F3C, B-LCL Donor 6 DRβ1*1501/DRβ1*3", "value": 7869, "unit": "RLU"}, {"measurement": "Proliferation with antigen-incubated APC", "setting": "[2]; T-cell line 165-F6C, B-LCL Donor 3 (Autologous) DRβ1*1501/DRβ1*11", "value": 12562, "unit": "RLU"}, {"measurement": "Proliferation with antigen-incubated APC", "setting": "[2]; T-cell line 165-F6C, B-LCL Donor 5 DRβ1*01/DRβ1*11", "value": 3142, "unit": "RLU"}, {"measurement": "Proliferation with antigen-incubated APC", "setting": "[2]; T-cell line 165-F6C, B-LCL Donor 6 DRβ1*1501/DRβ1*13", "value": 30293, "unit": "RLU"}]}]}
